According to US7754202B1, “Methods of controlling cell differentiation and growth using a fusion protein and a drug” (Stanford University, priority 1998, dated 2010):
Values joined by “and” are separate entries in the source; they are usually repeats but may differ in a detail not shown here. Equal values may be shown once.

What was measured:
[1] = system: primary murine bone marrow cells expressing the F36Vmpl fusion protein; assay: Response of marrow cells expressing F36Vmpl (MFM vector) to AP20187; type: cell-based; conditions: compared with FK1012 (data not shown)
From the text: A MSCVneo-based retroviral vector encoding a fusion protein identical to F1mpl except for the presence of the F36V mutation was built and tested. This vector, MFM (FIG. 4), has been used to derive a genetically stable, high titer ecotropic producer cell line using the methods described in Example 5.

[2] = system: cells; assay: Immunosuppressive activity or other toxicity to cells; type: cell-based; conditions: in experiments to date
[3] = target: endogenous FKBP12 (Homo sapiens, UniProt P62942); assay: Binding to endogenous FKBP12
endogenous FKBP12, sequence (P62942 whole entry, species assumed): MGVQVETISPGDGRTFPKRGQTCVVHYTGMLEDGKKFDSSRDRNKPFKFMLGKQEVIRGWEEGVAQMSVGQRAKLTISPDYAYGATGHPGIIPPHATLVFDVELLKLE

[4] = system: spleen; assay: In vivo selection with MFM vector: spleen weight; set-up: species or system B6D2F1 mice; conditions: after 40 days
Procedure: (§1) Marrow cells from B6D2F1 mice were transduced as follows: fluorouracil, 150 mg/kg, was injected intraperitoneally into female B6D2F1 mice. Forty-eight hours later, marrow cells were harvested and cultured for 48 hours in DMEM containing 16% fetal calf serum, 5% IL-3 conditioned medium, 100 ng/ml recombinant IL-6, and 50 ng/ml recombinant murine stem cell factor in a 37° C., 5% CO2 incubator. After 48 hours of prestimulation, cells were transferred onto irradiated (1500 cGy) producer cells and cocultivated using identical growth conditions except for the addition of polybrene (8 μg per ml). The producer cells generate retroviral particles containing the MFM vector that are able to infect the bone marrow cells. Therefore, the MFM retrovirus is introduced into the bone marrow cells during the period of cocultivation. Marrow cells were harvested after 48 hours of cocultivation and 8×10^6 cells were injected into each of 10 lethally irradiated (1050 cGy) B6D2F1 mice. Immediately following transplantation, five mice received intraperitoneal injections of AP20187 daily at a dose of 2 mg/kg/day for forty consecutive days. Five control mice received daily injections of the drug diluent (see below) without AP20187.
(§2) AP20187 was prepared as follows: Drug was solubilized in ethanol, then PEG 400 was added. Finally, a mixture of water and Tween 80 was added to achieve final concentrations of ethanol of 4%, PEG400 10% and Tween 1.4%.
(§3) After 40 days of drug administration, splenectomies were performed; spleens were weighed and spleen cells were tested in clonogenic assays to determine the frequency of genetically modified progenitor cells.

[5] = system: MH cells expressing chimeric receptors; assay: DNA synthesis (BrdU incorporation) in MH cells expressing FKBP chimeric receptors; type: cell-based, monkey (Macaca fascicularis); conditions: serum-starved MH cells, 3 days after AP20187 addition; compared with nonspecific induction by AP20187 alone
Procedure: FIG. 5. DNA synthesis in MH cells expressing FKBP chimeric receptors after stimulation with AP20187. 5×10^4 MH cells were plated per well (24 well plate) in the presence of FCS. 24 hours after retrovirus infection, culture medium was replaced by serum-free medium and cells were starved for 6 days. At this time point AP20187 was added to one set of cells and BrdU incorporation was measured three days after induction. BrdU labeled cells were counted in four independent areas for each sample (N=3) and expressed as the percentage of BrdU (+) cells. The (+) and (−) symbols after the chimeric gene designations indicates the presence and absence of AP20187, respectively. […]
To test the proliferation properties of MH cells, cellular DNA replication based on incorporation of BrdU was analyzed. […] After this, BrdU labeled DNA was detected in cell nuclei by immuno-histochemistry with BrdU-specific antibodies.
Retroviruse vectors expressing the chimeric receptors provided in TABLE 9 were prepared as a means for gene transfer into hepatocytes. […] Next, the percentage of MH cells grown in the presence of FCS and HGF that can be transduced by an amphotropic β-Gal virus after an incubation of 5 hours at an MOI of 1 cfu per cell was determined. […] At this time point AP20187 was added to one set of cells and BrdU incorporation was measured three days after induction. […]

[6] = system: genetically modified progenitor cells in the femur; assay: In vivo selection with MFM vector: G418 resistant colonies in the femur (bone marrow aspirates); set-up: species or system B6D2F1 mice
Procedure: as §1, §2
The presence of the neo gene in the MFM vector allows the frequency of genetically modified progenitor cells to be determined by performing clonogenic assays either in the presence or absence of G418. After 32 days of drug administration, bone marrow aspirates were performed and the frequency of clonogenic progenitor cells was determined. Results are shown as follows:
Sufficient numbers of bone marrow cells were obtained on the aspirates of one control and one drug treated mouse (numbers 191 and 195, respectively) to permit Southern analysis.

[7] = system: genetically modified progenitor cells in the spleen; assay: In vivo selection with MFM vector: G418 resistant colonies in the spleen; set-up: species or system B6D2F1 mice; conditions: after 40 days
Procedure: as §1, §2, §3

[8] = In vivo half life
[9] = system: hematopoietic cell subsets in the spleen; assay: In vivo selection with MFM vector: flow cytometry of hematopoietic cell subsets in the spleen; set-up: species or system B6D2F1 mice; TER119 (erythroid) cells in the spleen / CD11b (myeloid) cells in the spleen / CD41 (megakaryocytic) cells in the spleen / CD3 (T-lymphoid) cells in the spleen / B220 (B-lymphoid) cells in the spleen: unit not given here
Procedure: as §1, §2
To characterize the types of cells expanding in response to AP20187, flow cytometry was performed using antibodies directed against myeloid (CD11b), erythroid (TER119), megakaryocytic (CD41), B-lymphoid (B-220) and T-lymphoid (CD3) cells.

[10] = individual mice, 2 mg/kg/day i.p., 2 mg/kg/day
[11] = group mean, spleen, flow cytometry
[12] = individual mice, flow cytometry, after 40 days

CC[C@H](C(=O)N1CCCC[C@H]1C(=O)O[C@H](CCc1ccc(OC)c(OC)c1)c1cccc(OCC(=O)NCC(CNC(=O)COc2cccc([C@@H](CCc3ccc(OC)c(OC)c3)OC(=O)[C@@H]3CCCCN3C(=O)[C@@H](CC)c3cc(OC)c(OC)c(OC)c3)c2)CN(C)C)c1)c1cc(OC)c(OC)c(OC)c1 [AP20187]
proliferative and differentiative responses [1]: indistinguishable from those we have observed using FK1012
immunosuppressive activity or other toxicity to cells [2]: no immunosuppressive activity or other toxicity to cells
binding to endogenous FKBP12 [3]: does not bind to endogenous FKBP12
Spleen Weight, Mean ([4]; group mean (+/−)): 208.9 (+/−43.5) mg
Spleen Weight [4, 10]: 200 mg and 190 mg and 279 mg and 213 mg and 162 mg
spleen size ([4]; versus control group): significant increase in spleen size
effect on DNA proliferation (BrdU incorporation) [5]: clear effect on DNA proliferation in MH expressing chimeric receptors
mean number of G418 resistant colony forming cells in the femur relative to control group ([6]; after 32 days, did not achieve statistical significance): approximately 2 fold
Percentage of G418 Resistant Colonies (femur), Mean ([6]; group mean (+/−), 2 mg/kg/day i.p., after 32 days): 20.9 (+/−13.3) %
Percentage of G418 Resistant Colonies (femur) ([6]; individual mice, 2 mg/kg/day i.p., after 32 days of drug administration, 2 mg/kg/day): 39.3% and 14.7% and 17.7% and 28.1% and 4.6%
proviral signal by Southern analysis of bone marrow aspirates ([6]; one drug treated mouse (195) versus one control (191)): detectable only in the mouse that had received AP20187
G418 Resistant (spleen colonies), Mean ([7]; group mean (+/−)): 9 (+/−8.7%)
G418 Resistant (spleen colonies) [7, 10]: 4.1% and 5.2% and 6.4% and 24.5% and 4.8%
percentage of genetically modified progenitor cells in the spleen ([7]; versus control group): increased percentage of genetically modified progenitor cells in the spleen that did not achieve statistical significance
in vivo half life [8]: 9 h
B220, mean (standard deviation) [9, 11]: 29.2 (5.1)
CD3, mean (standard deviation) [9, 11]: 12.2 (8.2)
CD11b, mean (standard deviation) [9, 11]: 10.2 (2.5)
CD41, mean (standard deviation) [9, 11]: 1.4 (1.1)
TER119, mean (standard deviation) [9, 11]: 27.7 (8.1)
B220 (B-lymphoid) cells in the spleen [9, 12]: 31.6 and 24.5 and 23.0 and 33.2 and 33.8
CD3 (T-lymphoid) cells in the spleen [9, 12]: 24.4 and 8.4 and 4.8 and 6.5 and 16.8
CD11b (myeloid) cells in the spleen [9, 12]: 9.5 and 7.8 and 12.8 and 8.2 and 13.0
CD41 (megakaryocytic) cells in the spleen [9, 12]: 0.7 and 0.5 and 1.1 and 3.3 and 1.4
TER119 (erythroid) cells in the spleen [9, 12]: 21.0 and 28.2 and 40.8 and 27.4 and 21.1
change in hematopoietic cell subsets in the spleen ([9]; versus control group): increase in myeloid (CD11b-positive) and erythroid (TER119-positive) cells in the spleen
